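GI50: concentration for 50% inhibition of growth. TGI marks complete inhibition of growth.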
What was measured:
Test in all cases: NCI anticancer screen, dose series, 384-well format
786-0 renal = system: 786-0 renal
A498 renal = system: A498 renal
A549 NSCLC = system: A549 NSCLC
ACHN renal = system: ACHN renal
BT-549 breast = system: BT-549 breast
CAKI-1 renal = system: CAKI-1 renal
CCRF-CEM leukemia = system: CCRF-CEM leukemia
COLO 205 colon = system: COLO 205 colon
DU-145 prostate = system: DU-145 prostate
EKVX NSCLC = system: EKVX NSCLC
HCC-2998 colon = system: HCC-2998 colon
HCT-116 colon = system: HCT-116 colon
HCT-15 colon = system: HCT-15 colon
HL-60(TB) leukemia = system: HL-60(TB) leukemia
HOP-62 NSCLC = system: HOP-62 NSCLC
HOP-92 NSCLC = system: HOP-92 NSCLC
HT29 colon = system: HT29 colon
IGROV1 ovarian = system: IGROV1 ovarian
K-562 leukemia = system: K-562 leukemia
KM12 colon = system: KM12 colon
LOX IMVI melanoma = system: LOX IMVI melanoma
M14 melanoma = system: M14 melanoma
MALME-3M melanoma = system: MALME-3M melanoma
MCF7 breast = system: MCF7 breast
MDA-MB-231 breast = system: MDA-MB-231 breast
MDA-MB-435 melanoma = system: MDA-MB-435 melanoma
MDA-MB-468 breast = system: MDA-MB-468 breast
MOLT-4 leukemia = system: MOLT-4 leukemia
NCI-H226 lung = system: NCI-H226 lung
NCI-H23 lung = system: NCI-H23 lung
NCI-H322M lung = system: NCI-H322M lung
NCI-H460 NSCLC = system: NCI-H460 NSCLC
NCI-H522 lung = system: NCI-H522 lung
NCI/ADR-RES ovarian = system: NCI/ADR-RES ovarian
OVCAR-3 ovarian = system: OVCAR-3 ovarian
OVCAR-4 ovarian = system: OVCAR-4 ovarian
OVCAR-5 ovarian = system: OVCAR-5 ovarian
OVCAR-8 ovarian = system: OVCAR-8 ovarian
PC-3 prostate = system: PC-3 prostate
RPMI-8226 leukemia = system: RPMI-8226 leukemia
RXF 393 renal = system: RXF 393 renal
SF-268 CNS = system: SF-268 CNS
SF-295 CNS = system: SF-295 CNS
SF-539 CNS = system: SF-539 CNS
SK-MEL-2 melanoma = system: SK-MEL-2 melanoma
SK-MEL-28 melanoma = system: SK-MEL-28 melanoma
SK-MEL-5 melanoma = system: SK-MEL-5 melanoma
SK-OV-3 ovarian = system: SK-OV-3 ovarian
SN12C renal = system: SN12C renal
SNB-19 CNS = system: SNB-19 CNS
SNB-75 CNS = system: SNB-75 CNS
SR leukemia = system: SR leukemia
SW-620 colon = system: SW-620 colon
T-47D breast = system: T-47D breast
TK-10 renal = system: TK-10 renal
U251 glioblastoma = system: U251 glioblastoma
UACC-257 melanoma = system: UACC-257 melanoma
UACC-62 melanoma = system: UACC-62 melanoma
UO-31 renal = system: UO-31 renal

Structure (SMILES): C[C@H]1CN(C2COC2)CCN1c1ccc(Nc2cc(-c3ccnc(N4CCn5c(cc6c5CC(C)(C)C6)C4=O)c3CO)cn(C)c2=O)nc1
- GI50 ([…]-0 renal): 21.8 µM
- TGI (786-0 renal): > 52.2 µM
- GI50 (A498 renal): 14.3 µM
- TGI (A498 renal): 28.2 µM
- GI50 (A549 NSCLC): 18.5 µM
- TGI (A549 NSCLC): > 54.3 µM
- GI50 (ACHN renal): 19.9 µM
- TGI (ACHN renal): > 54.2 µM
- GI50 (BT-549 breast): 18.9 µM
- TGI (BT-549 breast): 40.9 µM
- GI50 (CAKI-1 renal): 17.8 µM
- TGI (CAKI-1 renal): > 48.1 µM
- GI50 (CCRF-CEM leukemia): 3.36 µM
- TGI (CCRF-CEM leukemia): 13.4 µM
- GI50 (COLO 205 colon): 19.8 µM
- TGI (COLO 205 colon): 39.8 µM
- GI50 (DU-145 prostate): 30.8 µM
- TGI (DU-145 prostate): 97.1 µM
- GI50 (EKVX NSCLC): 76.9 µM
- TGI (EKVX NSCLC): > 100 µM
- GI50 (HCC-2998 colon): 3.62 µM
- TGI (HCC-2998 colon): 14.5 µM
- GI50 (HCT-116 colon): 20.6 µM
- TGI (HCT-116 colon): > 52.4 µM
- GI50 (HCT-15 colon): 28.3 µM
- TGI (HCT-15 colon): > 55.3 µM
- GI50 (HL-60(TB) leukemia): 12.9 µM
- TGI (HL-60(TB) leukemia): 25.9 µM
- GI50 (HOP-62 NSCLC): 17.8 µM
- TGI (HOP-62 NSCLC): > 48.1 µM
- GI50 (HOP-92 NSCLC): 1.15 µM
- TGI (HOP-92 NSCLC): 6.86 µM
- GI50 (HT29 colon): 20.5 µM
- TGI (HT29 colon): > 50.1 µM
- GI50 (IGROV1 ovarian): 15.5 µM
- TGI (IGROV1 ovarian): 33.9 µM
- GI50 (K-562 leukemia): 20.6 µM
- TGI (K-562 leukemia): > 53.8 µM
- GI50 (KM12 colon): 26.2 µM
- TGI (KM12 colon): > 58.9 µM
- GI50 (LOX IMVI melanoma): 17.7 µM
- TGI (LOX IMVI melanoma): 31.7 µM
- GI50 (M14 melanoma): 35 µM
- TGI (M14 melanoma): > 54.7 µM
- GI50 (MALME-3M melanoma): 34.8 µM
- TGI (MALME-3M melanoma): > 54 µM
- GI50 (MCF7 breast): 14.1 µM
- TGI (MCF7 breast): > 44 µM
- GI50 (MDA-MB-231 breast): 6.46 µM
- TGI (MDA-MB-231 breast): 20.4 µM
- GI50 (MDA-MB-435 melanoma): 26.2 µM
- TGI (MDA-MB-435 melanoma): > 55.9 µM
- GI50 (MDA-MB-468 breast): 14.5 µM
- TGI (MDA-MB-468 breast): 32.8 µM
- GI50 (MOLT-4 leukemia): 0.731 µM
- TGI (MOLT-4 leukemia): 1.93 µM
- GI50 (NCI-H226 lung): 11.8 µM
- TGI (NCI-H226 lung): 28.4 µM
- GI50 (NCI-H23 lung): 33.5 µM
- TGI (NCI-H23 lung): > 78.7 µM
- GI50 (NCI-H322M lung): 28.6 µM
- TGI (NCI-H322M lung): > 72.8 µM
- GI50 (NCI-H460 NSCLC): 37.7 µM
- TGI (NCI-H460 NSCLC): > 100 µM
- GI50 (NCI-H522 lung): 12.7 µM
- TGI (NCI-H522 lung): 37.2 µM
- GI50 (NCI/ADR-RES ovarian): 20.8 µM
- TGI (NCI/ADR-RES ovarian): 55.9 µM
- GI50 (OVCAR-3 ovarian): 10.7 µM
- TGI (OVCAR-3 ovarian): 24.7 µM
- GI50 (OVCAR-4 ovarian): 13.3 µM
- TGI (OVCAR-4 ovarian): > 51.6 µM
- GI50 (OVCAR-5 ovarian): 24.1 µM
- TGI (OVCAR-5 ovarian): > 67.1 µM
- GI50 (OVCAR-8 ovarian): 20.9 µM
- TGI (OVCAR-8 ovarian): > 60.7 µM
- GI50 (PC-3 prostate): 28.1 µM
- TGI (PC-3 prostate): 90.1 µM
- GI50 (RPMI-8226 leukemia): 0.86 µM
- TGI (RPMI-8226 leukemia): 2.55 µM
- GI50 (RXF 393 renal): 3.89 µM
- TGI (RXF 393 renal): 26.8 µM
- GI50 (SF-268 CNS): 16.8 µM
- TGI (SF-268 CNS): 35.4 µM
- GI50 (SF-295 CNS): 35 µM
- TGI (SF-295 CNS): > 60.1 µM
- GI50 (SF-539 CNS): 25.5 µM
- TGI (SF-539 CNS): > 53.4 µM
- GI50 (SK-MEL-2 melanoma): 4.87 µM
- TGI (SK-MEL-2 melanoma): 24.5 µM
- GI50 (SK-MEL-28 melanoma): > 36.9 µM
- TGI (SK-MEL-28 melanoma): > 53 µM
- GI50 (SK-MEL-5 melanoma): 27.8 µM
- TGI (SK-MEL-5 melanoma): > 48.2 µM
- GI50 (SK-OV-3 ovarian): 16.3 µM
- TGI (SK-OV-3 ovarian): 35.7 µM
- GI50 (SN12C renal): 20.2 µM
- TGI (SN12C renal): 44.5 µM
- GI50 (SNB-19 CNS): 29.8 µM
- TGI (SNB-19 CNS): > 85.4 µM
- GI50 (SNB-75 CNS): 30.5 µM
- TGI (SNB-75 CNS): 81.6 µM
- GI50 (SR leukemia): 5.31 µM
- TGI (SR leukemia): 18.4 µM
- GI50 (SW-620 colon): 17.5 µM
- TGI (SW-620 colon): 38.1 µM
- GI50 (T-47D breast): 20.3 µM
- TGI (T-47D breast): > 59.5 µM
- GI50 (TK-10 renal): 17 µM
- TGI (TK-10 renal): 32.8 µM
- GI50 (U251 glioblastoma): 41.4 µM
- TGI (U251 glioblastoma): > 100 µM
- GI50 (UACC-257 melanoma): 16.4 µM
- TGI (UACC-257 melanoma): 34.5 µM
- GI50 (UACC-62 melanoma): 14.6 µM
- TGI (UACC-62 melanoma): > 54.6 µM
- GI50 (UO-31 renal): 16.2 µM
- TGI (UO-31 renal): 29.8 µM
